Test results published in PubChem BioAssay AID179 (DTP/NCI, 2004).
Where “and” joins values, the source holds several entries; their conditions need not be identical. Equal values may be shown once. Calls of active or inactive are those of the source.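 The calls were made as follows: active = compounds giving half or more protection of infected cells from virus-caused growth loss, again on retest; inactive = the rest.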 Where a SMILES comes first, the peptide text is derived from it. [ ]: non-standard residue; d: D form. The star is where a group is joined. ONb = O=[N+]([O-])c1ccc(CO*)cc1; AllylGly = C=CC[CH](N)C(=O)O; Boc = CC(C)(C)OC(=O)*

System: CEM cells HIV-1 protection, formazan growth assay
Test: NCI AIDS Antiviral Assay
Conditions: for IC50: measured here: growth of uninfected CEM cells
Outline: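 Screen of anti-HIV-1 activity in human CEM cells using a formazan-based growth measurement at five drug concentrations. Hits with 50% or greater protection were repeated, and confirmation required reproducible complete protection.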

Structure (SMILES)	EC50	IC50	outcome
Nc1c(C(=O)O)nnc2cc(Cl)ccc12	> 200 µM	66.1 µM	
N.N.N.N.N.[Co+3].[I-].[N-]=[N+]=[N-]			inactive
Cc1nc(N)c2cnn(C)c2n1	> 1510 µM	708 µM	
Nc1nc(N)nc(CC(=O)O)n1	> 200 µM	> 200 µM	
O=C(O)CNC(=O)Cn1[se]c2ccccc2c1=O	18.2 µM	110 µM	
Cc1cc(Br)c(N2C3=C(CC4=C2CCCC4=O)C(=O)CCC3)c(Br)c1	> 100 µM	21.9 µM	
Cn1c(=Nc2ccccc2[N+](=O)[O-])sc2ccccc21	> 200 µM	> 100 µM	
CCOC(=O)Cn1c(=O)c2nc(SC)sc2n(-c2ccc(C)cc2)c1=S	> 200 µM	> 200 µM	
CCOC(=O)/C(=C\c1ccc(C#N)cc1)[Se]c1ccccc1	> 52.5 µM	> 52.5 µM	
CN(C)CC(C)(C)C(=O)/C=C/c1ccccc1			inactive
O=C1C=CC(=O)c2nc3c(cc21)CCC3	> 91.2 µM	10.5 µM	
C/C(=N/NC(=S)N1CCCCCC1)c1cccc(/C(C)=N\NC(=S)N2CCCCCC2)n1	> 200 µM	3.63 µM	
Cc1ccc(O)c(Cc2cc(C)cc(Cc3cc(C)ccc3O)c2O)c1	> 102 µM	20 µM	
COc1ccc(C(=O)CC2(O)C(=O)N(CN3CCOCC3)c3ccc(Br)cc32)cc1 (configuration not stated)	> 123 µM	105 µM	
O=Nc1c(O)cc(Nc2ccc(Br)cc2)c2ccccc12	> 200 µM	39.8 µM	
CCOC(=O)C1=C(O)C(=O)NC(C(=O)OCC)=C(c2ccccc2)C1	> 50.1 µM	> 50.1 µM	
CC1CCC(C(C)C)/C(=N/NC(=O)CC#N)C1 (configuration not stated)	> 200 µM	> 200 µM	
CCN(CC)C1C(=O)NC1C#Cc1ccccc1 (configuration not stated)	> 200 µM	85.1 µM	
N/N=C(\c1nc2ccc([N+](=O)[O-])cc2[nH]c1=O)C(O)c1ccc(Cl)c(Cl)c1 (configuration not stated)	> 339 µM	145 µM	
O=C(/C=C\c1cccc2ccccc12)c1cccs1	> 3.98 µM	> 3.98 µM	
O=c1oc2ccccc2c(O)c1C(C/C(CCN1CCCC1)=N\Nc1ccccc1)c1ccccc1 (configuration not stated)	> 97.7 µM	41.7 µM	
COc1ccc(C(=O)/C=C/c2ccc(OCC(=O)N3CCN(c4ccccc4)CC3)cc2)cc1OC			inactive
CN(C)Cc1cc(N=Nc2ccc(Cl)cc2)ccc1O	> 20 µM	13.5 µM	
O=C1OC(c2ccc(Cl)c3ccccc23)c2ccccc21 (configuration not stated)	> 17.8 µM	> 17.8 µM	

Structure (SMILES)	EC50	IC50	outcome
N#CC1(C#N)C2C=CC(c3coc4cccc2c34)C1(C#N)C#N (configuration not stated)			inactive
Cc1ccc(S(=O)(=O)C(CC(NC=O)S(=O)(=O)c2ccc(C)cc2)NC=O)cc1 (configuration not stated)			inactive
COc1cc(O)cc2c1C(=O)C(C)O2 (configuration not stated)	> 200 µM	> 200 µM	
CNc1nc(N)c(N=O)c(Nc2ccc(Br)cc2)n1	> 200 µM	170 µM	
CCN=C(CC(=O)C12CC3CC(CC(C3)C1)C2)N(CC)CC			inactive
CC12CC(=O)C3C(C(=O)C1)C32C (configuration not stated)	> 200 µM	> 200 µM	
C(/C=C/N1CCCC1)=C\c1nc(N2CCCC2)c2ccccc2n1	> 42.7 µM	11.5 µM	
CC(C)Cn1cnc2c(Cl)nc3ccccc3c21	> 200 µM	41.7 µM	
OCC12C3C4C1C1C2C3C41CO (configuration not stated)	> 1510 µM	> 1510 µM	
O=C(O)c1cc(NCc2cc(O)ccc2O)ccc1O	> 25.1 µM	5.13 µM	
Cn1c2ccccc2c(=O)c2c(O)cc3c(c21)C=CC1(CCCC1)O3	16.2 µM	> 200 µM	
CN1C(=O)C(O)CC1c1cccc(C(F)(F)F)c1 (configuration not stated)			inactive
O=c1[nH]n(Cc2ccccc2Cl)c2ccc([N+](=O)[O-])cc12	> 200 µM	69.2 µM	
COC(=O)C1C2CCCN2OC1(C)CO (configuration not stated)	> 200 µM	> 200 µM	
Cc1cc(Cc2cc(C)c(O)c(Br)c2)cc(Br)c1O	> 200 µM	1.58 µM	
CC(C)N(C)C(=O)C12C3C4C1C1C2C3C41C#N (configuration not stated)			inactive
C=CC(C)(C)n1cc(C2=C(O)C(=O)C(c3cn(C(C)(C)C=C)c4ccccc34)=C(O)C2=O)c2ccccc21	> 22.4 µM	12.3 µM	
COc1ccc(N2C(=O)C3CC(c4ccc(C)cc4)c4c([nH]c5ccccc45)C3C2=O)cc1 (configuration not stated)	> 2.4 µM	> 2.4 µM	
CC(=O)Oc1cc2c(c(=O)n1C)C(C)N(C)C2=O (configuration not stated)	53.7 µM	309 µM	
CCOC(=O)/C(O)=C(/C=N/C(=S)Nc1c(CC)cccc1CC)C(=O)OCC	> 200 µM	110 µM	
COc1ccc(C(=O)/C=C/c2ccc(OCC(=N)N)cc2)cc1OC			inactive
COC1(C)CCC(OS(C)(=O)=O)CO1 (configuration not stated)	> 200 µM	> 200 µM	
COc1ccc(C2Nc3ccccc3NC3CC(C)(C)CC(=O)C32)cc1 (configuration not stated)	> 257 µM	178 µM	
CC(=O)c1ccc(NC(=O)C(=O)C(C#N)CC(C)(C)C=O)cc1 (configuration not stated)	> 83.2 µM	> 83.2 µM	

Structure (SMILES)	EC50	IC50	outcome
COC(=O)c1csc(-c2csc(CCNC(=O)OC(C)(C)C)n2)n1	> 355 µM	60.3 µM	
O/N=C/c1ncccc1C1OCCO1	> 257 µM	141 µM	
CC(C)CC(NC(=O)C(CCI)Cc1ccccc1)C(=O)Nc1ccccc1 (configuration not stated)	> 200 µM	32.4 µM	
CCCCCCCCCCCCNC(=O)NCC(OCC)OCC	> 200 µM	31.6 µM	
COc1c(C2=NC(C(C)C)CO2)ccc2ccccc12 (configuration not stated)	> 186 µM	20.9 µM	
Cc1ccc2nc(NS(=O)(=O)c3cc(C)c(Cl)cc3S)[nH]c2c1	> 200 µM	> 200 µM	
COCC(=O)OC1CCn2c1nc1c2C(=O)C(C)=C(NC(C)=O)C1=N (configuration not stated)	> 200 µM	2.88 µM	
CCCC[P+](c1ccccc1)(c1ccccc1)c1ccccc1	> 200 µM	2.57 µM	
CCCN(CCCC(NC(C)=O)C(=O)NCc1ccccc1)C(=O)NC (configuration not stated)	> 692 µM	> 692 µM	
Nc1c2c(nc3ccccc13)CCCC2 (tested in a mixture with another compound)	> 4170 µM	25.7 µM and 39.8 µM	
O=C1CCC(c2ccccc2)=NN1c1nc2ccccc2s1			inactive
CN(C)C(=S)Nc1ccc(Cl)cc1	> 200 µM	52.5 µM	
COP(=O)(OC)C(N)Cc1c[nH]c2ccccc12 (configuration not stated)	> 200 µM	> 200 µM	
O=C1C=C(C(O)CCO)C(=O)c2c(O)ccc(O)c21 (configuration not stated)			inactive
S=C(c1c[nH]c2ccccc12)N1CCN(c2ccccc2)CC1	> 200 µM	158 µM	
C1=C(c2ccccc2)N2CCN=C2S1	> 200 µM	37.2 µM	
CC1(C)Oc2ccc3ccc(=O)oc3c2[C@@H](OC(=O)C23CCC(C)(C(=O)O2)C3(C)C)[C@H]1OC(=O)C12CCC(C)(C(=O)O1)C2(C)C (some centres not stated)	2.95 µM	14.1 µM	
C=CCC(NC(=O)OC(C)(C)C)C(=O)NC(CCC(=O)OCc1ccc([N+](=O)[O-])cc1)C(N)=O (configuration not stated) (Boc-[AllylGly]-Glu(ONb)-NH2; configuration not given here)	> 200 µM	102 µM	
CCCCc1c2c(nc3c1CC/C(=C\c1ccccc1)C3=O)CCCC2	> 4.17 µM	3.31 µM	
CC(=O)O[C@H]1CCC2[C@@H]3CCC4Nc5[nH]ncc5C[C@]4(C)C3CC[C@@]21C (some centres not stated)			inactive
NC(CSS(=O)(=O)O)=NCCCc1nc2ccccc2[nH]1	> 200 µM	45.7 µM	
CCC[CH2][Sn]1([CH2]CCC)[O]C(=O)C2C(C(=O)[O]1)C1(Cl)C(Cl)=C(Cl)C2(Cl)C1(Cl)Cl (configuration not stated)	> 200 µM	0.182 µM	
CC1CCN(C2=CC(=O)C(=O)c3cccnc32)CC1			inactive
Cc1ccc2c(c1)CC1(C2)Cc2ccc(C)cc2C1=O (configuration not stated)	> 200 µM	23.4 µM	

Structure (SMILES)	EC50	IC50	outcome
COc1ccc(C2=Nc3ccccc3SC(C)C2)cc1 (configuration not stated)	> 13.2 µM	> 13.2 µM	
CCOC(=O)c1cnn2c1ncc1c(=O)n(NC(N)=O)ccc12	> 200 µM	> 200 µM	
O=C1[C@@H]2C3c4ccccc4C([C@@H]2C(=O)N1c1ccccc1)S3(=O)=O			inactive
CC(=O)N=C1N(/C=C2\C(=O)Oc3ccccc3C2=O)C(=O)/C(=C/c2ccc(OC(C)=O)cc2)N1C	> 200 µM	107 µM	
Cc1nc2ccccc2c2c(N)cccc12	> 200 µM	> 200 µM	
O=c1cc(P(=O)(O)O)[nH]c(=O)[nH]1			inactive
COc1ccc2cc(C(=O)NCCc3ccccc3)ccc2c1OC	> 200 µM	> 200 µM	
CC(=O)OC(C)(C)C1CC[C@]2(C)/C=C/C(C)C[C@@H](O)/C=C(\C)CC(O)C12 (some centres not stated)			inactive
COC(=O)C1Cc2c([nH]c3ccccc23)C=N1 (configuration not stated)			inactive
C=CC1(c2ccc(Cl)c(Cl)c2)OCCO1	> 200 µM	166 µM	
Cn1cc(S(=O)(=O)NC(=O)Nc2ccc(Cl)cc2)c(=O)c2ccc(F)cc21			inactive
CSc1nc(Br)nc2c1ncn2C1CC(Oc2ccc(C)cc2)C(COc2ccc(C)cc2)O1 (configuration not stated)	> 200 µM	79.4 µM	
NC(C(=O)O)C1=CCCC1 (configuration not stated)	> 200 µM	> 200 µM	
CSSC(SC)SC	> 200 µM	33.1 µM	
COc1ccc(CCN2C(=O)c3cccc4c(Sc5ccccc5[N+](=O)[O-])ccc(c34)C2=O)cc1OC	> 200 µM	> 200 µM	
COc1cc(CC2c3cc(OC)c(OC)cc3CCN2C)c(Oc2cc3c(cc2OC)-c2c(O)c(OC)cc4c2C(C3)N(C)CC4)cc1OC (configuration not stated)			inactive
CC1(C)C(=O)C2(C(=O)O)CCC1C2 (configuration not stated)	> 200 µM	> 200 µM	
CCN(CC)CCCC(C)Nc1cc(/C=C/c2ccc(Cl)cc2)nc2cc(N(C)C)ccc12 (configuration not stated)	> 145 µM	0.871 µM	
COC(=O)c1nc(-c2ccc(Cl)c(Cl)c2)nc2ccc(Cl)cc12			inactive
OC[C@@H]1CC#C/C=C\C#CC[C@@H]1CO			inactive
CC(CO)(CO)N1C(=O)C2C3C=CC(C3)C2C1=O (configuration not stated)	> 200 µM	> 200 µM	
O=C1c2ccccc2/C=C\C(c2ccccc2)=N/N1c1ccccc1Cl	> 200 µM	12.6 µM	
